Where two headings read alike, the source gives them in different places.
How the values were obtained:
[1] = system: CGS 21680-induced catalepsy; assay: Activity on CGS 21680-induced catalepsy; type: in vivo, mice; details: for inhibition in vivo at 10 mg/kg: Mus musculus, po, read-out: Remission ratio (%); for Total score: total catalepsy score of 10 mice (maximum 50 points; 40 points or less = positive), one hour after administration
Outline: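 Male ddY mice, 5 weeks old, ten per group, were dosed orally with compound at 10 mg/kg in 0.3% Tween 80 water, 30 min before CGS 21680 (10 μg/20 μL) was injected into the cerebral ventricle. Catalepsy was scored 1 h after compound dosing by placing forelimbs or hindlimbs on a 4.5 cm stand.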

adenosine A2A receptor = biological target: T1, adenosine A2A receptor (Rattus norvegicus, UniProt P30543); assay: Adenosine A2A receptor binding test (3H-CGS 21680 binding); details: read-out: A2A Receptor inhibition rate (%) at 10^−7 mol/L
T1 construct: from tissue; host or cells: rat corpus striatum membrane preparation

[2] = system: common marmoset treated with 1-methyl-4-phenyl-1,2,3,6-tetrahydropyridine (MPTP); assay: Parkinson's disease model, MPTP-treated common marmoset; type: in vivo; details: symptom score and spontaneous locomotor activity versus solvent-administered group
Experimental: Parkinson's disease is a disease based on the degeneration and cell death of the nigrostriatal dopaminergic neurons. […] These MPTP-treated primates are known as a model of Parkinson's disease [Proceedings of the National Academy of Science USA, vol. 80, p. 4546 (1983)]. […] 57, p. 37 (1985)].
The test was carried out using 4 female and male common marmosets of 2 to 3 year age (300 to 375 g in body weight, Japan CLEA) per group. MPTP (produced by RBI Co.) was dissolved in physiological saline for injection (produced by Otsuka Pharmaceutical Co., Ltd.), and hypodermically administered to the common marmosets once a day for 5 days in a dose of 2.0 mg/kg. Six weeks or more after the administration, animals showing chronic symptoms of Parkinson's disease were used in the test. Each test compound was used by suspending it in an aqueous solution containing 0.3% Tween 80 and 10% sucrose. Also, a solution containing no test compound was used as a control. One hour before the administration of the test compound, the animals to be tested were put into an observation cage (provided with a spontaneous locomotor activity measuring apparatus) to adapt them to the environment. The symptoms of Parkinson's disease were observed from a one-way see through window at intervals of 30 minutes for 8 hours to score the motor disability. The spontaneous locomotor activity was measured at intervals of 30 minutes for 12 hours by a computer-controlled automatic measuring apparatus. The symptoms of Parkinson's disease were decided on the basis of the criteria of each observation item shown below, and the total of the points was used as the score of each animal.
The effect was decided by comparing average scores of the symptoms of Parkinson's disease in 4 animals per group between the test compound-administered group and the solvent-administered group (significance test: Sign-Wilcoxon test). The spontaneous locomotor activity was also decided by comparison between the test compound-administered group and the solvent-administered group.

male SD rats = assay: Learned helplessness (LH) model; type: in vivo; details: for escape response: IES-loaded rats, 2 mg/kg orally 1 hour before FR1; for intertrial responses (index of psychomotor stimulant action): versus electric shock loaded control group, 2 mg/kg orally
Experimental: As test animals, 10 to 15 male SD rats (220 to 320 g in body weight, 7 week age, Charles River Japan, Inc., Atsugi) per group were used. During the preliminary feeding period, the animals were bred to be allowed to freely have feed (CRF-1; Oriental Yeast Co., Ltd, Tokyo) and water (tap water) in an animal room at a room temperature of 22 to 24° C. and a humidity of 50 to 60%. Each test compound was orally administered in a dose of 2 mg/kg 1 hour before RF1 (refer to the contents described below) on the second day of the test.
A shuttle box apparatus (TK-401S; produced by UNICOM, Chiba) was used as a learning experimental apparatus. On the first day, the shuttle box was divided into two rooms by setting a partition at its center, and one rat was put in each of the rooms. […] Although each rat was put in the shuttle box for 50 minutes, the charging time of inescapable shock (IES) was set to 25 minutes by computer control using a random duration time (10 to 90 seconds) and random on-off and off-on (10 to 90 seconds).
On the second day, a shuttle box test was carried out by the method of Maier [J. Comp. Physiol. Psychol., vol. 85, pp. 581-592 (1973)] and the method of Geoffroy and Christensen [Drug Dev. Res., vol. 29, pp. 48-55 (1993)] which were slightly modified. The partition at the center of the shuttle box was removed, and the box was divided into two rooms by a hurdle of 2 cm in height instead of the partition. In the shuttle box test, FRI (an electric shock of 0.6 mA was applied to the rat for 5 seconds unless the rat moved to the other room within 5 seconds after the start of buzzer sounds, and when the rat moved to the other room within 5 seconds after the start of buzzer sounds, the floor shock could be avoided, this operation being carried as one trial and repeated 15 times with an interval of 10 seconds between trials.) was carried out, continuously followed by FR2 (an electric shock of 0.6 mA was applied to the rat for 10 seconds, and then an electric shock of 0.6 mA was applied at intervals of 0.5 second for 10 seconds, this operation being carried out as one trial and repeated 15 times with an interval of 15 seconds between trials). Escape reaction was determined by the escape response calculated by the equation below on the assumption that cases showing two escape latency times of less than 10 seconds in FR2 were regarded as successful escape. Escape response (%)=(Number of trials of successful escape/15)×100
Furthermore, migration (intertrial response %) in the box other than the escape reaction observed during a period between trials (resting time) was used as an index of psychomotor stimulant action, the intertrial response being calculated by the following equation. […]

male ddY mice = assay: Forced swimming method (measurement of immobility time); type: in vivo; details: orally administered, 10 mg/kg, one hour before the test; versus solvent group (Steel-test)
Experimental: Ten male ddY mice (21 to 26 g in body weight, Japan SLC) per group were used as test animals. During the preliminary feeding period, the animals were bred to be allowed to freely have feed (CRF-1; Oriental Yeast Co., Ltd, Tokyo) and water (tap water) in an animal room at a room temperature for 23±1° C. and a humidity of 55±5%.
Animals showing abnormal reactions in terms of spontaneous activity, myotonia, eyesight and the like were previously excluded. Each test compound was suspended in a 0.3% Tween 80 solution and orally administered one hour before the test. In the negative control group, 10 mL/kg of a 0.3% Tween 80 solution alone was orally administered. The immobility time was measured according to the Porsolt method [Arch. Int. Pharmacodyn., vol. 229, pp. 327-336 (1977)]. Namely, a cylindrical transparent acrylic water tank (10 cm in diameter and 25 cm in height) was filled with water at a temperature between 23±1° C. to a height of 9 cm, and the mice were forced to swim for 6 minutes. When the mice are put into water, they immediately start to swim trying to escape from the tank, but the motion gradually decreases 1 to 2 minutes thereafter. […] In order to reduce the effects of daily rhythm, the test was carried out using 5 of the 10 animals per group in the morning, and the remaining 5 animals in the afternoon. The immobility time was measured by observing 2 animals at the same time without telling the observers distinctions about the control group administered with the solvent alone and doses of the test compounds. Statistical analysis of the results was carried out by a multiple comparison Steel-test between the solvent-administered group and the test compound-administered group.

[3] = test compound 10^−7 mol/L, 3H-CGS 21680 binding, rat corpus striatum
[4] = from total score of test group and control group, 10 mg/kg orally

T1 sequence (P30543 whole entry): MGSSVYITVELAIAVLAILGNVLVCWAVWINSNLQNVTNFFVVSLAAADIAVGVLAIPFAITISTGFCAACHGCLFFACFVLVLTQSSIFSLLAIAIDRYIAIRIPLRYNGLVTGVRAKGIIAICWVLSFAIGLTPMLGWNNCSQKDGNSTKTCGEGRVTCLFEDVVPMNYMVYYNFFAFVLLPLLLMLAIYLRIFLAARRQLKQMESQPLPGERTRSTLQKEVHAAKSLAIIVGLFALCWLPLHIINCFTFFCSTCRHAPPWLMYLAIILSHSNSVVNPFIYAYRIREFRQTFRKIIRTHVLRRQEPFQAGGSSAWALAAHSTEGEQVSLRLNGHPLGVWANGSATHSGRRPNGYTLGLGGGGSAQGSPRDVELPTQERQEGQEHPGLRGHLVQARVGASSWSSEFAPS

Compound	inhibition in vivo at 10 mg/kg [1] [%]	Total score ([1]; 10 mg/kg orally)	inhibition at 0.1 µM (adenosine A2A receptor) [%]	effect in the common marmoset MPTP-treated Parkinson's disease model [2]	escape response (male SD rats)	intertrial responses (index of psychomotor stimulant action) (male SD rats)	immobility time (male ddY mice)	inhibition at 0.1 µM (adenosine A2A receptor; [3]) [%]	inhibition in vivo at 10 mg/kg [1, 4] [%]
CC(C)(O)CCN1CC=C(c2cc3nc(-c4ccco4)nn3c(N)n2)CC1 [Compound 76, 5-Amino-7-[1-(3-methyl-3-hydroxybutyl)-1,2,3,6-tetrahydro-pyridin-4-yl]-2-(2-furyl)[1,2,4]triazolo[1,5-c]pyrimidine]	80	5	72	effective	–	–	–	–	–
Nc1nc(C2CCN(CC3CC3)CC2)cc2nc(-c3ccco3)nn12 [Compound 71, 5-Amino-7-[1-(cyclopropylmethyl)piperidin-4-yl]-2-(2-furyl)-[1,2,4]triazolo[1,5-c]pyrimidine]	–	–	–	effective	significantly recover a reduced escape response	no difference	significant effect of decreasing the immobility time	87	–
Nc1nc(C(=O)NCc2cccnc2)cc2nc(-c3ccco3)nn12 [Compound 83, 5-Amino-2-(2-furyl) [1,2,4]triazolo[1,5-c]pyrimidine-7-carboxylic acid (3-pyridylmethyl)amide]	–	2	–	–	significantly recover a reduced escape response	no difference	significant effect of decreasing the immobility time	–	96
CN(CCc1ccccn1)C(=O)c1cc2nc(-c3ccco3)nn2c(N)n1 [Compound 85, 5-Amino-2-(2-furyl)[1,2,4]triazolo[1,5-c]pyrimidine-7-carboxylic acid {N-[2-(2-pyridyl)ethyl]-N-methyl}amide]	–	3	–	effective	–	–	–	70	94
